Target: T1, York PSA (enzymatically active free PSA) (Homo sapiens, UniProt P07288)
T1 construct: 50% cleavage of the noted oligopeptide-cytotoxic agent conjugates with enzymatically active free PSA
Assay: Recognition/cleavage of oligopeptide-vinca drug conjugates by free PSA
Type: biochemical
Settings: PSA digestion buffer pH7.4, conjugate to PSA molar ratio 100 to 1, HPLC; when n > 1 value is an average
Description: Alternatively, the PSA digestion buffer utilized is 50 mM tris(hydroxymethyl)aminomethane pH7.4, 140 mM NaCl. The reaction is quenched after various reaction times by the addition of trifluoroacetic acid (TFA) to a final 1% (volume/volume). Alternatively the reaction is quenched with 10 mM ZnCl2. The quenched reaction was analyzed by HPLC on a reversed-phase C18 column using an aqueous 0.1%TFA/acetonitrile gradient. […] Unless otherwise indicated, the acetate salt of the conjugate was tested.

T1 sequence (P07288 25-261): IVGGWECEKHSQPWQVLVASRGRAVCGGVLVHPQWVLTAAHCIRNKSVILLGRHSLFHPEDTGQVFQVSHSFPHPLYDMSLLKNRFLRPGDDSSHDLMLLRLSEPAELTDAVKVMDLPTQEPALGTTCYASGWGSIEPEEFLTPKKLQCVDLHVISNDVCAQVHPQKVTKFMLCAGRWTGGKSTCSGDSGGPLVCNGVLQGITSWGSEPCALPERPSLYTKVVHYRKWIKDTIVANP

4-des-Acetylvinblastine-23-(N-Acetyl-Ser-Ser-Ser-Chg-Gln-Ser-Val-BDAM) amide acetate salt [Ac-SSSChgQSV-1,4-BDAM-(dAc)-VIN]
Time to 50% Substrate Cleavage by York PSA: 10 min

4-des-Acetylvinblastine-23-(N-methoxy-diethyleneoxyacetyl-4-trans-L-Hyp-Ser-Ser-Chg-Gln-Ser-Val-BDAM) amide acetate salt
Time to 50% Substrate Cleavage by York PSA: 14 min
